Like-named read-outs stand apart in the source and are kept apart here.
Assays:
cAPPC100sub = test: Cell-based γ-secretase cleavage assay, cAPPC100sub stably overexpressing cells (Aβ ELISA); conditions: for low-dose potentiation of cleavage, cAPPC100sub: cAPPC100sub overexpressing cells
Text: We next tested all GSIs on cAPPC100sub and full‐length APP stably overexpressing cells. […] The low‐dose potentiation of γ‐secretase cleavage was further mechanistically probed using in vitro assays with recombinant substrates and IP‐MS.
For the cell‐based assay, all substrates contain a human NOTCH4 signal peptide sequence ([…]), amyloid β peptide (Aβ1–25/K16A) epitope tag followed by the juxtamembrane region (JMD) of the given substrate and a FLAG tag ([…]) at the COOH‐terminal. K16A mutant was created to decrease potential α‐secretase cleavage. The cDNAs were generated by gene synthesis conducted by Genscript. A schematic representation of the substrates is provided in Fig 4A, and sequences of the cDNAs and the proteins are provided in Appendix Fig S6. For clarity, these substrates are referred to as cell‐based assay substrates (e.g., NOTCH1 is cNOTCH1sub). Substrate cDNAs were cloned into pCDNA3.1 (Invitrogen, Carlsbad, CA, USA) for expression in H4 cells (ATCC, Manassas, VA).
H4 cells were cultured in Opti‐mem media (Thermo‐Fisher) supplemented with Hyclone 6% fetal bovine serum (GE, Logan, Utah, USA) and 1% penicillin/streptomycin (Life Technologies, Grand Island, NY, USA). pCDNA3.1 plasmids containing the substrate cDNAs were transfected into H4 cells using FuGENE HD reagent (Madison, WI, USA). Stable cell lines were established using G418 selection. […] Cells and conditioned media were used for WB, IP, and ELISA.
(§1) Sandwich ELISAs used for Aβ detection were performed as previously described (Murphy et al, 1999; Ran et al, 2014). Briefly, Aβ and Aβ‐like peptides in conditioned media were captured with Ab5 antibody and detected with horseradish peroxidase labeled mAb 4G8 (Biolegend). Synthetic Aβ1‐40 was used as standard. All ELISAs were developed with TMB substrate (KPL, Gaithersburg, Maryland, USA). Bis‐Tris precast gels (Biorad, Hercules, CA, USA) were used for all SDS–PAGE. Monoclonal anti‐FLAG M2 antibody (Sigma) and Aβ1‐16 antibody 6E10 (Covance) were used for Western blotting at 1:1,000 dilution. Anti‐CD74 In‐1 antibody (BD Bioscience, San Jose, CA, USA) was used for A20 cell lysate Western blotting at dilution of 1:1,000. MDA‐MB‐231 cell extracts were prepared by lysing cells in RIPA buffer containing protease and phosphatase inhibitors. The lysates were kept on ice for 30 min and vortexed every 10 min, and then centrifuged at 4°C for 10 min at 1,000 g. The supernatants were collected, and protein concentrations were determined by Bradford Assay. Pan‐NOTCH1 antibody (C‐20) (Santa Cruz Biotechnology) and cleaved NOTCH1 (Val1744) antibody ([…]) were used at 1:500 and 1:100 dilution in the test of endogenous NOTCH1 inhibition with β‐actin expression used as loading control. β‐actin antibody was used at 1:1,000 dilution (Sigma). Band intensities normalized for actin using densitometry analysis with ImageJ Software (NIH, USA).

SPPL2a = target: T1, SPPL2a (Mus musculus, UniProt Q9JJF9); test: Endogenous CD74 P8 turnover in A20 cells (Western blot, In-1 antibody), biomarker for SPPL2a cleavage; format: cell-based; conditions: 16 h
T1 construct: To verify the finding in a non‐overexpressing cell line; endogenous in cells; host or cells: A20 (ATCC TIB-208)
T1 sequence (Q9JJF9 26-523): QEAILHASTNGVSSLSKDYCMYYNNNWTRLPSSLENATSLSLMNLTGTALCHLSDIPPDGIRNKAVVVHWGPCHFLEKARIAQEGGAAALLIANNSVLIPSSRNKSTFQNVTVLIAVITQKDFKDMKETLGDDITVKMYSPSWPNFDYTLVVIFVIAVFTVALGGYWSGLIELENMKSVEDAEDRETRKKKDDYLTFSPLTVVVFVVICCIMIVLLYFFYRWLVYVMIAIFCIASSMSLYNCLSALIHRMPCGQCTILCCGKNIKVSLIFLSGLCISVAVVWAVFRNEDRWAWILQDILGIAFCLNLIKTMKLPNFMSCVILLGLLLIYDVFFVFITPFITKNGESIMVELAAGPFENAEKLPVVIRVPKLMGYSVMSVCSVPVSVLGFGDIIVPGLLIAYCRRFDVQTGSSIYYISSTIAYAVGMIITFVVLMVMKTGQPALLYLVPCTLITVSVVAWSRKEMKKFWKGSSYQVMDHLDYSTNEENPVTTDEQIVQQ
Protocol: To verify the finding in a non‐overexpressing cell line, we applied the inhibitors to the mouse B lymphocyte cell line A20 (ATCC TIB‐208).
(§2) SPPL2a, SPPL2b, SPP, and chimeric substrate FBA were generated as previously described (Ran et al, 2015). A20 cells (TIB‐208; ATCC, Manassas, VA, USA) were cultured in RPMI‐1640 medium (ATCC) supplied with 10% fetal bovine serum, 1% penicillin/streptomycin, and 0.05 mM 2‐mercaptoethanol (Life Technologies). Various concentrations of GSIs and (ZLL)2‐ketone as indicated in figures were applied to transfected HEK 293t cells at 70–90% confluence or A20 cells at a density of 5 × 10^5 cells/ml with fresh media in 48‐well format for 16 h. Cells and conditioned media were used for WB, IP, and ELISA.
as §1

SPPL2a, SPPL2b, and SPP = test: Cell-based SPPLs cleavage assay, HEK 293t cells co-transfected with FBA and SPPLs (ELISA); conditions: 1 μM, HEK 293t co-transfected with SPPLs and FBA
Protocol: It is known that SPP/SPPLs can be inhibited by select GSIs (Ran et al, 2015). Here, we tested the effect of various GSIs on the SPP/SPPL family members SPPL2a, SPPL2b, and SPP. We co‐transfected SPPLs with the BRI2 based chimeric SPP/SPPL substrate that we have referred to as FBA into HEK 293t cells. SPPL‐specific inhibitor (ZLL)2‐ketone was used as positive control. DAPT was not tested here as we and others have previously reported it had no effect on SPP activity at concentration up to 100 μM (Weihofen et al, 2003). […] Dose responses of BMS‐906024, RO4929097, and PF‐3084014 were performed with a similar strategy, but a stable SPPL2b/FBA overexpressing HEK 293 cell line was used instead of transient transfection (Fig 8B). […] Table 3 compares the GSIs’ potencies on γ‐secretase and SPPL2b. The average of IC50s on cNOTCH1sub, cNOTCH2sub, cNOTCH4sub, and APP was used as the GSI's potency on γ‐secretase.
as §2, §1

[1] = stably overexpressing cells, Aβ ELISA, read-out: IC50 cC100sub
[2] = value in parentheses, read-out: IC50 cC100sub, from curves excluding the Aβ level > 120%

stabilization of CD74 8 kDa NTF P8 (SPPL2a; 1,000 nM)	Compound	increase of Aβ production from the cAPPC100sub (cAPPC100sub; 1–4 pM BMS‐906024)	IC50 (cAPPC100sub; [1]) [µM]	stabilization of CD74 8 kDa NTF P8 (SPPL2a; 40 nM)	SPPLs‐catalyzed cleavage of FBA substrate (SPPL2a, SPPL2b, and SPP)	low-dose potentiation of cleavage, cAPPC100sub (cAPPC100sub)	IC50 (cAPPC100sub; [2]) [µM]	stabilization of CD74 8 kDa NTF P8 (SPPL2a; at the tested dose)
–	CN1C(=O)[C@@H](NC(=O)[C@H](CCC(F)(F)F)[C@H](CCC(F)(F)F)C(N)=O)N=C(c2ccccc2)c2ccccc21 [BMS‐906024]	~ 1.5 fold	0.00146	greatly stabilized	efficiently inhibited	–	–	–
–	O=C(O)CC[C@H]1CC[C@@](c2cc(F)ccc2F)(S(=O)(=O)c2ccc(Cl)cc2)CC1 [MK‐0752]	–	0.336	–	did not show significant inhibition	low‐dose potentiation of cleavage was observed	0.154	did not show stabilization activity
–	CCC[C@H](N[C@H]1CCc2cc(F)cc(F)c2C1)C(=O)Nc1cn(C(C)(C)CNCC(C)(C)C)cn1 [PF‐3084014]	–	0.00247	slightly stabilized	mild inhibition	–	0.00134	–
–	CC(C)(C(=O)NCC(F)(F)C(F)(F)F)C(=O)N[C@@H]1C(=O)Nc2ccccc2-c2ccccc21 [RO4929097]	–	0.0266	greatly stabilized	efficiently inhibited	low‐dose potentiation of cleavage was observed	0.024	–
weak stabilization	CC(C)[C@H](O)C(=O)N[C@@H](C)C(=O)N[C@@H]1C(=O)N(C)CCc2ccccc21 [Semagacestat]	–	0.175	–	did not show significant inhibition	low‐dose potentiation of cleavage was observed	0.105	–
